Test results taken from PubChem BioAssay (NCI).
Where “and” joins values, the source holds several entries; their conditions need not be identical. Equal values may be shown once.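 Tested at 5 concentrations; 48 h exposure; 96-well plates; endpoints linearly interpolated, else capped at highest concentration. Here, GI50 denotes the concentration required for 50% inhibition of growth. TGI: concentration producing complete growth inhibition.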

Columns and labels:
Experiment in all cases: NCI anticancer screen, dose series, 48 h
CAKI-1 renal = tested on: CAKI-1 renal
HT29 colon = tested on: HT29 colon
K-562 leukemia = tested on: K-562 leukemia
MALME-3M melanoma = tested on: MALME-3M melanoma
NCI-H226 lung = tested on: NCI-H226 lung
OVCAR-8 ovarian = tested on: OVCAR-8 ovarian
SF-295 CNS = tested on: SF-295 CNS
SK-MEL-2 melanoma = tested on: SK-MEL-2 melanoma
SNB-75 CNS = tested on: SNB-75 CNS
SR leukemia = tested on: SR leukemia

## CC1(C)CC(/C=C2/OC(=O)c3ccccc32)=C(C#N)C(=O)O1
CAKI-1 renal
  TGI: > 100 µM
HT29 colon
  TGI: > 100 µM
K-562 leukemia
  TGI: > 100 µM
MALME-3M melanoma
  TGI: > 100 µM
NCI-H226 lung
  TGI: > 100 µM
OVCAR-8 ovarian
  TGI: > 100 µM
SF-295 CNS
  TGI: > 100 µM
SK-MEL-2 melanoma
  TGI: > 100 µM
SNB-75 CNS
  TGI: > 100 µM
SR leukemia
  TGI: > 100 µM

## Cc1cc2c(cc1C)[n+](=O)c(C(=O)CC(=O)C(=O)Nc1c(C(C)C)cccc1C(C)C)c(C)n2[O-]
CAKI-1 renal
  TGI: > 100 µM
HT29 colon
  TGI: > 100 µM
K-562 leukemia
  TGI: > 100 µM
MALME-3M melanoma
  TGI: > 100 µM
NCI-H226 lung
  TGI: > 100 µM
OVCAR-8 ovarian
  TGI: > 100 µM
SF-295 CNS
  TGI: > 100 µM
SK-MEL-2 melanoma
  TGI: > 100 µM
SNB-75 CNS
  TGI: > 100 µM
SR leukemia
  TGI: > 100 µM

## COc1cccc(/C=N/NC(=O)c2ccccc2Nc2ccnc(C(F)(F)F)c2)c1O
CAKI-1 renal
  GI50: 0.257 µM
  TGI: 9.72 µM
HT29 colon
  GI50: 4.06 µM
  TGI: > 100 µM
K-562 leukemia
  GI50: 369 nM
  TGI: 12.3 µM
MALME-3M melanoma
  GI50: 0.964 µM
  TGI: 33.6 µM
NCI-H226 lung
  GI50: 571 nM
  TGI: 36.5 µM
OVCAR-8 ovarian
  GI50: 0.319 µM
  TGI: > 38 µM
SF-295 CNS
  GI50: 522 nM
  TGI: 29.1 µM
SK-MEL-2 melanoma
  GI50: 2.13 µM
  TGI: > 44 µM
SNB-75 CNS
  GI50: 1.62 µM
  TGI: > 76.5 µM
SR leukemia
  GI50: 47.7 nM
  TGI: 0.417 µM

## CC1OC(n2cc(F)c(=O)[nH]c2=O)CCC1O (stereo unspecified)
CAKI-1 renal
  TGI: > 100 µM
HT29 colon
  TGI: > 100 µM
K-562 leukemia
  TGI: > 100 µM
MALME-3M melanoma
  TGI: > 100 µM
NCI-H226 lung
  TGI: > 100 µM
OVCAR-8 ovarian
  TGI: > 100 µM
SF-295 CNS
  TGI: > 100 µM
SK-MEL-2 melanoma
  TGI: > 100 µM
SNB-75 CNS
  TGI: > 100 µM
SR leukemia
  TGI: > 100 µM

## O=C(CN1CCOCC1)Nc1ccc(Cn2nnc3c2C(=O)c2nnn(Cc4ccc(NC(=O)CN5CCOCC5)cc4)c2C3=O)cc1
CAKI-1 renal
  GI50: > 45 µM
  TGI: > 100 µM
HT29 colon
  GI50: 0.364 µM
  TGI: 1.53 µM
K-562 leukemia
  GI50: 745 nM
  TGI: > 100 µM
MALME-3M melanoma
  GI50: 0.178 µM
  TGI: 0.469 µM
NCI-H226 lung
  GI50: 1540 nM
  TGI: 3.93 µM
OVCAR-8 ovarian
  GI50: 0.358 µM
  TGI: 1.33 µM
SF-295 CNS
  GI50: 1650 nM
  TGI: 3.68 µM
SK-MEL-2 melanoma
  GI50: 0.438 µM
  TGI: 1.72 µM
SNB-75 CNS
  GI50: 1.66 µM
  TGI: 3.04 µM
SR leukemia
  GI50: 516 nM
  TGI: 3.97 µM

## CCOC(=O)/C=C(/C(=O)OCC)n1cc(Cl)c(=O)n(CC(=O)OCC)c1=O
CAKI-1 renal
  TGI: 7.64 µM and 5.5 µM
HT29 colon
  GI50: 22.5 µM
  TGI: 9.38 µM and 52 µM
K-562 leukemia
  GI50: 4240 nM
  TGI: 25 µM and > 100 µM
MALME-3M melanoma
  TGI: 10.3 µM
NCI-H226 lung
  TGI: > 25 µM and 32.5 µM
OVCAR-8 ovarian
  GI50: 12.6 µM
  TGI: 8.43 µM and 28.4 µM
SF-295 CNS
  GI50: > 100000 nM
  TGI: > 100 µM
SK-MEL-2 melanoma
  GI50: 26.2 µM
  TGI: 11.2 µM and 46.3 µM
SNB-75 CNS
  GI50: 16.6 µM
  TGI: 13 µM and 33.6 µM
SR leukemia
  TGI: 25 µM

## Cc1nc2cccc([N+](=O)[O-])c2c(NCCCN(C)C)c1C
CAKI-1 renal
  TGI: > 100 µM
HT29 colon
  TGI: 55.3 µM
K-562 leukemia
  TGI: > 76.9 µM
MALME-3M melanoma
  TGI: > 31.6 µM
NCI-H226 lung
  TGI: > 90.4 µM
OVCAR-8 ovarian
  TGI: > 54.7 µM
SF-295 CNS
  TGI: > 100 µM
SK-MEL-2 melanoma
  TGI: > 85.6 µM
SNB-75 CNS
  TGI: > 100 µM
SR leukemia
  TGI: > 57.5 µM

## COc1ccc(C2=NN(C(=O)c3cc(OC)c(OC)c(OC)c3)C(c3ccc(C#N)cc3)C2)cc1OC (stereo unspecified)
CAKI-1 renal
  GI50: 0.412 µM
  TGI: 7.15 µM
HT29 colon
  GI50: 2.42 µM
  TGI: > 32.1 µM
K-562 leukemia
  GI50: 889 nM
  TGI: > 100 µM
MALME-3M melanoma
  GI50: 14.6 µM
  TGI: > 78.9 µM
NCI-H226 lung
  GI50: 2840 nM
  TGI: > 55.3 µM
OVCAR-8 ovarian
  GI50: 3.26 µM
  TGI: > 42.7 µM
SF-295 CNS
  GI50: 351 nM
  TGI: 2.37 µM
SK-MEL-2 melanoma
  GI50: 1.58 µM
  TGI: > 20.3 µM
SNB-75 CNS
  GI50: 0.586 µM
  TGI: 19.9 µM
SR leukemia
  GI50: 1130 nM
  TGI: > 100 µM

## COc1ccc2[nH]c3c(C)c4c(c(C)c3c2c1)CN(C)CC4
CAKI-1 renal
  TGI: 34.1 µM
HT29 colon
  TGI: 20.2 µM
K-562 leukemia
  TGI: 25.8 µM
MALME-3M melanoma
  TGI: 35 µM
NCI-H226 lung
  TGI: 30.8 µM
OVCAR-8 ovarian
  TGI: 25.8 µM
SF-295 CNS
  TGI: 32.9 µM
SK-MEL-2 melanoma
  TGI: 31.5 µM
SNB-75 CNS
  TGI: 36.4 µM
SR leukemia
  TGI: 83.8 µM

## CN(C)CCNc1cc(-c2ccccc2)nc2ccccc12
CAKI-1 renal
  GI50: 6.56 µM
  TGI: 40.9 µM
HT29 colon
  GI50: 4.01 µM
  TGI: 16.7 µM
K-562 leukemia
  GI50: 2600 nM
  TGI: 12.3 µM
MALME-3M melanoma
  GI50: 12.6 µM
  TGI: 27.7 µM
NCI-H226 lung
  GI50: 5980 nM
  TGI: 30.2 µM
OVCAR-8 ovarian
  GI50: 4.1 µM
  TGI: 22 µM
SF-295 CNS
  GI50: 7850 nM
  TGI: 46.9 µM
SK-MEL-2 melanoma
  GI50: 11.3 µM
  TGI: 24.9 µM
SNB-75 CNS
  GI50: 9.57 µM
  TGI: 23.4 µM
SR leukemia
  GI50: 2720 nM
  TGI: 8.37 µM

## C[C@]12CC[C@H](O)CC1=CC[C@@H]1[C@@H]2CC[C@]2(C)C(c3cccnc3)=CC[C@@H]12
CAKI-1 renal
  GI50: > 100 µM
  TGI: > 100 µM
HT29 colon
  GI50: 56.2 µM
  TGI: > 100 µM
K-562 leukemia
  GI50: 3990 nM
  TGI: > 100 µM
MALME-3M melanoma
  GI50: 54.3 µM
  TGI: > 100 µM
NCI-H226 lung
  GI50: > 68000 nM
  TGI: > 100 µM
OVCAR-8 ovarian
  GI50: 29.5 µM
  TGI: > 100 µM
SF-295 CNS
  GI50: 6070 nM
  TGI: > 100 µM
SK-MEL-2 melanoma
  GI50: 34.5 µM
  TGI: > 100 µM
SNB-75 CNS
  GI50: 7.69 µM
  TGI: > 48.7 µM
SR leukemia
  GI50: 9440 nM
  TGI: > 100 µM
